Source: patent publication US4558054A, “Spasmolytic endo-8,8-dialkyl-8-azoniabicyclo (3.2.1) octane-6,7-exo-epoxy-3-alkyl-carboxylate salts” (priority 1983, dated 1985)
Read-outs that look alike come from different tables or passages of the source.

Experiments:
[1] = Acute toxicity in the mouse; format: in vivo; conditions: mouse, in vivo, ip; male mice (Swiss stock); Litchfield and Wilcoxon
Procedure: (§1) 5. Acute toxicity in the mouse
(§2) The acute toxicity of the compounds according to the invention was evaluated in comparison with that of Buscopan, atropine methyl bromide and syntropium bromide, after intraperitoneal administration in male mice (Swiss stock).
(§3) The LD50, the values of which together with the relative confidence limits (P=0.05) are given in Table 6, was calculated by the Litchfield and Wilcoxon method [Litchfield J. T., Wilcoxon F. A., J. Pharmac. Exp. Theor., 96, 99 (1949)].
(§4) Acute toxicity in the mouse after intraperitoneal administration

[2] = system: mouse; experiment: Acute toxicity in the mouse; format: in vivo; conditions: compared with reference standards / Buscopan
Procedure: as §1, §2, §3, §4

[3] = system: intestinal transit in the mouse; experiment: Intestinal transit in the mouse (inhibition of progression of opaque meal); conditions: in vivo, ip
Procedure: (§5) 3. Intestinal transit in the mouse
(§6) 3. intestinal transit in the mouse
(§7) An evaluation was made on the capacity of the studied compounds to inhibit the progression of an opaque meal 15 minutes after their intraperitoneal administration into the mouse. This test is indicative of undesirable side effects.
(§8) The method followed was the classical method of Janssen and Jageneau [Janssen P. A., Jageneau A. H., J. Pharm. Pharmacol. 9, 381 (1957)], by which the doses which inhibit the progression of the opaque meal through the small intestine by 50% (ED50) relative to the controls were calculated.
(§9) Activity affecting intestinal transit in the mouse after intra-
(§10) peritonal administration 15 minutes before taking the opaque

[4] = as above; conditions: in vivo, ip
Procedure: as §5, §6, §7, §8, §9, §10

[5] = system: T1, isolated guinea pig ileum (antagonist acetyl choline) (Cavia porcellus); experiment: Isolated guinea pig ileum, antimuscarinic activity vs acetyl choline, pA2; format: cell-based; conditions: with respect to Buscopan (=1)
T1 construct: antimuscarinic activity using the isolated guinea pig ileum; from tissue; host or cells: isolated guinea pig ileum
Procedure: (§11) 2. Isolated guinea pig ileum (antagonist acetyl choline)
(§12) 2. Isolated guinea pig ileum
(§13) All the compounds were also tested for antimuscarinic activity using the isolated guinea pig ileum, with acetyl choline as antagonist.
(§14) The potency of action was evaluated by calculating the pA2 values, as in the case of the direct myolytic activity evaluated on the isolated rat ileum.
(§15) Antimuscarinic activity evaluated on the isolated guinea pig ileum
(§16) with acetyl choline as antagonist, expressed as pA2 value.

[6] = target: T2, isolated guinea pig ileum (antagonist acetyl choline) (Cavia porcellus, UniProt H0W1Z3); experiment: as above; format: cell-based; conditions: for antimuscarinic spasmolytic activity in words, compared with Buscopan / spasmolytic activity relative to Buscopan: vs Buscopan; for antimuscarinic activity in words, compared with atropine: vs atropine
T2 construct: antimuscarinic activity using the isolated guinea pig ileum; from tissue; host or cells: isolated guinea pig ileum
Procedure: as §11, §12, §13, §14, §15, §16

[7] = system: mouse pupil (basal pupillary diameter); experiment: Mydriatic activity in the mouse; format: in vivo; conditions: for mydriatic activity lower than atropine methyl bromide: vs atropine methyl bromide
Procedure: 4. Mydriatic activity in the mouse
The dose able to increase the basal pupillary diameter by 150% (ED150)15 minutes, 30 minutes, 60 minutes and 120 minutes after intraperitoneal administration of the compounds into the mouse was calculated.
Mydriatic activity evaluated in the mouse 15 minutes, 30 minutes, 60
minutes after intraperitoneal administration

[8] = Overall pharmacological screening (spasmolytic activity and side effects); conditions: intestinal transit and mydriatic effect in the mouse
Procedure: The study was conducted using the following in vitro and in vivo tests, each time in comparison with Buscopan, atropine methyl bromide and syntropium bromide: […]

[9] = system: isolated rat ileum (antagonist barium chloride); experiment: Isolated rat ileum, spasmolytic (direct myolytic) activity vs barium chloride, pA2; format: cell-based; parameters: key to pA2, spasmolytic effect: pA2 = −log molar antagonist conc. halving BaCl2-induced contraction; conditions: for direct myolytic activity relative to Buscopan: Buscopan activity = 1; for spasmolytic activity in words, rat ileum: compared with Buscopan; for pA2, spasmolytic effect: isolated rat ileum, barium chloride, 6 experiments, confidence limits P = 0.05; for Activity ratio: with respect to Buscopan (=1), antilogarithm of pA2 difference
From the text: 1. Isolated rat ileum (antagonist barium chloride)
The spasmolytic activity of the compounds reported in Table 1 were studied firstly in a comparison with Buscopan (scopolamine butyl bromide), using the isolated rat ileum, by the classical Magnus method [Magnus and coll., Pflugers Gas. Physiol., 102, 123 (1904)], of which the smooth muscle was subjected to direct stimulation by barium chloride. The evaluation of this activity was made by the method involving the pA2 determination [Schild H. G., Brit. J. Pharmacol., 2, 189, (1947)]. The pA2 value is the negative logarithm of the molar concentration of the antagonist able to reduce the contraction induced by the antagonist (barium chloride) by 50%.
Spasmolytic effect evaluated on the isolated rat ileum with barium
chloride as antagonist, and expressed as the pA2 value.

[10] = mouse, i.p., 150% increase of basal pupillary diameter
[11] = isolated guinea pig ileum, acetyl choline, 6 experiments, confidence limits P = 0.05, read-out: pA2, antimuscarinic activity (converted)

T2 sequence (H0W1Z3 1-590): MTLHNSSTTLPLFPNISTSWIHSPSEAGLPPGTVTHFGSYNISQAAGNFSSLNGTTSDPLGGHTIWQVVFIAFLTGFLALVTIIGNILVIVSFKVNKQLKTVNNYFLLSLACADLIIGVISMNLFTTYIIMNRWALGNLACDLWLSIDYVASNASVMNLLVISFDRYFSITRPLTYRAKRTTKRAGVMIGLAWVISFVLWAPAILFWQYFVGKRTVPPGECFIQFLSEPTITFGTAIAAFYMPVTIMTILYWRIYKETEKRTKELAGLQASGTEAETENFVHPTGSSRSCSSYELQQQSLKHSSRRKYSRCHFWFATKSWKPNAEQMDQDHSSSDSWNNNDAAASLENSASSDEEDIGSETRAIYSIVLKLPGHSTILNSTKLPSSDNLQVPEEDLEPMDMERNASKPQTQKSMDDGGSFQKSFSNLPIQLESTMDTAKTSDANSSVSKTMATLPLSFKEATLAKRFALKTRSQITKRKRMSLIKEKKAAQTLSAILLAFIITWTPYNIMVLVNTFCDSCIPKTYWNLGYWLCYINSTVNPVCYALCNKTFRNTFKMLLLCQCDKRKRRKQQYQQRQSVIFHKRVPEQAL
T1 sequence (H0W1Z3 1-590): as above

Compound | LD50 [1] | acute toxicity in words [2] | ED50 [4] | Activity ratio [5] | Kb [6] | ED150 after 15 min [7, 10] | ED150 after 30 min [7, 10] | ED150 after 60 min [7, 10] | spasmolytic activity in words, rat ileum [9] | pA2, spasmolytic effect [9] | Activity ratio [9] | other results
CCCC(CCC)C(=O)O[C@@H]1C[C@@H]2[C@H]3O[C@H]3[C@H](C1)[N+]2(C)C [No. 2, endo-8,8-dimethyl-8-azoniabicyclo[3.2.1]octane-6,7-exo-epoxy-3-(2-propyl)pentanoate bromide] | 93.5 mg/kg | decidedly lower toxicity | 79 mg/kg | 4.27 | 0.011 µM | 0.21 mg/kg/i.p. | 0.42 mg/kg/i.p. | 1.46 mg/kg/i.p. | decidedly greater than those of Buscopan | 8.06 | 16.6 | reduction of intestinal transit in words [3]: reduce intestinal transit to a decidedly lesser extent; antimuscarinic spasmolytic activity in words, compared with Buscopan [6]: decidedly greater than those of Buscopan; spasmolytic activity relative to Buscopan [6]: 4.27 times; antimuscarinic activity in words, compared with atropine [6]: approaches that of atropine itself; antimuscarinic activity in words, compared with syntropium bromide ([6]; vs syntropium bromide): much higher than; mydriatic activity lower than atropine methyl bromide [7]: 10 times less; side effects in words [8]: lesser level of side effects; direct myolytic activity relative to Buscopan [9]: 16.6 times
CCCC(CCC)C(=O)O[C@@H]1C[C@@H]2[C@H]3O[C@H]3[C@H](C1)[N@+]2(C)C(C)C [No. 8, endo-8-methyl-8-syn-(1-methyl)ethyl-8-azoniabicyclo[3.2.1]octane-6,7-exo-epoxy-3-(2-propyl)pentanoate bromide] | 78 mg/kg |  | ~69 mg/kg | 0.15 | 0.302 µM |  |  |  | good spasmolytic activity | 5.72 | 0.08 | 
C[N+]1(C)[C@@H]2CC[C@H]1C[C@@H](OC(=O)C(CO)c1ccccc1)C2 (stereo partly drawn) [Atropine MeBr, atropine methyl bromide] | 75 mg/kg |  | 52.1 mg/kg |  |  | 0.030 mg/kg/i.p. | 0.030 mg/kg/i.p. | 0.052 mg/kg/i.p. |  |  |  | 
CCCC(CCC)C(=O)OC1CC2CCC(C1)[N+]2(C)C(C)C (stereo not drawn) [Syntropium Br, syntropium bromide, reference compound] | 65 mg/kg |  |  | 2.57 |  |  |  |  |  |  |  | ED50 ([4]; 15 minutes before opaque meal, indicative of side effects, read-out: ED50, inhibition of progression of opaque meal by 50%): 29.8 mg/kg; Kb [6, 11]: 0.0182 µM
CCCC[N@+]1(C)[C@@H]2C[C@@H](OC(=O)C(CCC)CCC)C[C@H]1[C@@H]1O[C@@H]12 [No. 10, endo-8-methyl-8-syn-butyl-8-azoniabicyclo[3.2.1]octane-6,7-exo-epoxy-3-(2-propyl)pentanoate bromide] | 105 mg/kg | decidedly lower toxicity | ~85 mg/kg |  |  |  |  |  |  |  |  | 
CCCC(CCC)C(=O)O[C@@H]1C[C@@H]2[C@H]3O[C@H]3[C@H](C1)[N@@+]2(C)CC [No. 12, endo-8-methyl-8-anti-ethyl-8-azoniabicyclo[3.2.1]octane-6,7-exo-epoxy-3-(2-propyl)pentanoate bromide] | 72 mg/kg |  | 42.2 mg/kg | 0.50 | 0.0933 µM |  |  |  | activity similar to that of Buscopan | 6.66 | 0.7 | activity lower than Buscopan ([9]; vs Buscopan): 1.5 times lower
CCCC(CCC)C(=O)O[C@@H]1C[C@@H]2[C@H]3O[C@H]3[C@H](C1)[N@+]2(C)CC [No. 5, endo-8-methyl-8-syn-ethyl-8-azoniabicyclo[3.2.1]octane-6,7-exo-epoxy-3-(2-propyl)pentanoate bromide] | 74 mg/kg | lower toxicity | 73.2 mg/kg | 2.25 | 0.0191 µM | 2.17 mg/kg/i.p. | 6.16 mg/kg/i.p. |  | decidedly greater than those of Buscopan | 7.73 | 7.8 | reduction of intestinal transit in words [3]: reduce intestinal transit to a decidedly lesser extent; antimuscarinic spasmolytic activity in words, compared with Buscopan [6]: decidedly greater than those of Buscopan; spasmolytic activity relative to Buscopan [6]: 2.45 times; antimuscarinic activity in words, compared with atropine [6]: approaches that of atropine itself; mydriatic activity lower than atropine methyl bromide [7]: > 100 times less; side effects in words [8]: lesser level of side effects; direct myolytic activity relative to Buscopan [9]: 7.8 times
CCCC[N+]1(C)[C@@H]2C[C@@H](OC(=O)[C@H](CO)c3ccccc3)C[C@H]1[C@@H]1O[C@@H]12 (stereo partly drawn) [Buscopan, scopolamine butyl bromide] | 65 mg/kg |  | 51.7 mg/kg |  |  | 3.24 mg/kg/i.p. | 3.29 mg/kg/i.p. | 3.66 mg/kg/i.p. |  | 6.84 |  | Kb [6, 11]: 0.0468 µM; mydriatic activity over time, in words ([7]; mouse, i.p.): still possesses activity 120 minutes after its administration; ED150 after 120 min ([7]; mouse, i.p., 150% increase of basal pupillary diameter, 120 min): 5.32 mg/kg/i.p.
